The values that follow come from ChEMBL document CHEMBL4627407, “Identification of a Potent Oridonin Analogue for Treatment of Triple-Negative Breast Cancer” (J Med Chem, 2020).

For data set [1], the system named is HCC1806. As to the kind of experiment: Induction of intracellular reactive oxygen species generation in human HCC1806 cells assessed as accumulation of DCFH2-DA positive cells at 200 nM incubated for 48 hrs by flow cytometeric analysis (reference value: 3.53%). It is filed as functional. (In general: Flow cytometry measures light scatter and fluorescence of single cells or particles in a stream.)

For data set [2], the system named is HCC1806. Description: Induction of apoptosis in human HCC1806 cells assessed as necrotic cells at 100 uM after 48 hrs by Annexin V-FITC/propidium iodide double staining based flow cytometry (reference value: 1.32%). It is filed as functional.
The subject of data set [3] is HCC1806. Description: Antitumor activity against human HCC1806 cells in ICR mouse assessed as tumor shrinkage at 12.5 to 25 mg/kg, iv administered once per day for 23 consecutive days by hematoxylin and eosin staining based histopathological assay. It is filed as functional, organism-based.
In data set [4] the test system is HCC1806. Description: Induction of apoptosis in human HCC1806 cells assessed as early apoptotic cells at 100 uM after 48 hrs by Annexin V-FITC/propidium iodide double staining based flow cytometry (reference value: 2.16%). It is filed as functional.
The nature of data set [5]: Toxicity in ICR mouse assessed as induction of morphological changes in lung at 25 mg/kg, iv administered once per day for 23 consecutive days. It is filed as organism-based. Particulars: in vivo.

Calls of active or inactive are those of the source. No cut-off for these calls is given here.

For the compound `C=C1C(=O)[C@@]23C(=O)[C@@H]4OC[C@]5(C=CCC(C)(C)[C@@H]45)[C@@H]2CC[C@@H]1[C@H]3OC(=O)/C=C/c1ccncc1`, the Activity is recorded as 45.87% in data set [1], 0.66% in data set [2], 26.78% in data set [4] and “Non-Toxic” in data set [5]. For the same compound, the outcome in data set [3] was Active.
